Numbering of substitutions follows the chain as printed. *1 amine or outer side, *2 acyl side, *3 side chain or, on linkers, in order; H or OH if unused. Where a SMILES comes first, the peptide text is derived from it. Bridges are numbered along the chain shown (N, C = ends). Side-chain parts run from the residue outwards. [ ]: non-standard residue; d: D form. The star is where a group is joined. Trp(2-yl) = O=C([C@H](Cc1c([*:3])[nH]c2ccccc12)N[*:1])[*:2]; X1 = CN(CC(=O)O)c1nc(CC[*:1])cc(CC[*:2])n1; Dap(N3) = [N-]=[N+]=NC[C@H](N)C(=O)O; mXylylene = c1cc(C[*:1])cc(C[*:2])c1; CH2COCH2 = O=C(C[*:1])C[*:2]; Lauroyl = CCCCCCCCCCCC(=O)*; hCys = N[C@@H](CCS)C(=O)O; AEEA = NCCOCCOCC(=O)O; CH2 = C([*:1])[*:2]
Tested on: not listed separately
Assay: MTT cell viability assay in HeLa cells
Assay type: cell-based
Conditions: human; HeLa cells, 48 h, 50 μM compound; ±standard deviation; read-out: Cell viability (%) 50 μM compound
Experimental: HeLa cells were maintained in 5% CO2 in DMEM supplemented with 10% FBS, 2 mM L-glutamine, 100 U/mL penicillin and […] streptomycin, in an atmosphere containing 5% CO2.
Cells were regularly passed and used for experiments within one month after thawing (10-15 […]
1.6.2 Cell viability assay
Cell viability was assayed by 3-(4,5-dimethylthiazol-2-yl)-2,5-diphenyltetrazolium bromide (MTT) colorimetric assay. HeLa cells were plated on 96-well plates (20,000 cells per well in 100 μL). After 24 h, cells were treated with different concentrations of test compounds or vehicle alone (DMSO). One hour before the end of the incubations, 10 μL of MTT solution (5 mg/mL in PBS) were added to each well. Formazan crystals (proportional to the number of viable cells) were then dissolved by the addition of 20 μL/well of a pH 4.7 solution containing 20% (w:v) SDS, 50% (v:v) N,N-dimethylformamide, 2% (v:v) acetic acid, and 25 mM HCl, and quantified by recording the absorbance at 570 nm using an Infinite M200 PRO plate reader (TECAN, Life Sciences). […]

| Molecule | viability at 48 h, 50 µM [%] |
| --- | --- |
| O=C(O)c1ccc2c(c1)nc(Nc1cccc(Cl)c1)c1ccncc12 [CX-4945, reference compound] | 29 ± 1 |

Same assay, conditions: human; HeLa cells, 48 h, 100 μM compound; ±standard deviation; read-out: Cell viability (%) 100 μM compound

| Molecule | viability at 48 h, 100 µM [%] |
| --- | --- |
| O=C(O)c1ccc2c(c1)nc(Nc1cccc(Cl)c1)c1ccncc12 [CX-4945, reference compound] | 21 ± 1 |

Molecular target: T1, CK2α (Homo sapiens, UniProt P68400)
T1 construct: 571 nM CK2α_WT (residues 2-329); made in house
T1 sequence (P68400 2-329): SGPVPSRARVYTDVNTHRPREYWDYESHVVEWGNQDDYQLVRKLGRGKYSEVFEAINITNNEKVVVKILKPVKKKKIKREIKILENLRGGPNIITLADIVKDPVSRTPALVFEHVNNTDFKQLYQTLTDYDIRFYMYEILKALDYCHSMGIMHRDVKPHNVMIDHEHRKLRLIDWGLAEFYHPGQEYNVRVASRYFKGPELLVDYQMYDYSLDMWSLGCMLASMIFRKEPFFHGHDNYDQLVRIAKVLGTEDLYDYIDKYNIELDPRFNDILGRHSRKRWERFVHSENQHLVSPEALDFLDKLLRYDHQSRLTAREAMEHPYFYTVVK
Assay: Fluorescence polarisation (FP) assay: displacement of a CK2β-like fluorescent probe from CK2α
Assay type: binding
Conditions: CK2α_WT (residues 2-329), fluorescein-labelled CK2β-based peptide probe, ±SEM
From the text: To assess the ability of the synthesised linear peptides to displace a CK2β-like fluorescent probe from CK2α, a fluorescence polarisation (FP) assay was used (Table 1, ESI 1.3.2 and Fig. S2, ESI ^†). […]
(§1) 1.5 Biophysical experiments
(§2) 1.5.1 Protein expression and purification
Three constructs of CK2α were used in this study. For FP assays, CK2α_WT was used (residues 2-329). […]
These constructs were cloned, expressed, and purified as previously described.19 1.5.2 Fluorescence polarisation
IC50’s were determined using a PHERAstar FS plate reader (BMG labtech). The fluorescein probe was measured using 485 nm excitation and 530 nm emission. The fluorescein probe was covalently linked to the N-terminus of the linear CK2β-based peptide RLYGFKIHPMAYQLQ. IC50’s were measured using 500, 167, 16.7, 8.33 and 0 μM of the test peptide at a constant concentration of DMSO. P7C8, P8C9, P+L and P+ were tested at concentrations of 50.0, 16.7, 1.67, 0.833 and 0 μM due to their higher potencies. The experiments were performed in a Corning 384-well plate with final concentrations of 571 nM CK2α_WT (residues 2-329), 7.4 μM fluorescent peptide (fluorescein probe was covalently linked to the N-terminus of the linear CK2β-based peptide RLYGFKIHPMAYQLQ), 200 mM NaCl, 40mM TRIS, 20 mM MgCl2 and pH 7.5. The plates were read after a 45 min incubation period. […]

| IC50 [µM] | Molecule |
| --- | --- |
| 8.7 ± 4.2 | CC(=O)NCC(=O)N[C@H]1Cn2cc(nn2)-c2cc(C(=O)O)cc(c2)-c2cn(nn2)C[C@@H](C(=O)NCC(=O)NCC(N)=O)NC(=O)[C@H](Cc2c[nH]cn2)NC(=O)[C@H](Cc2c[nH]c3ccccc23)NC(=O)[C@H](CCCCN)NC(=O)[C@H](Cc2ccccc2)NC(=O)CNC(=O)[C@H](Cc2ccc(O)cc2)NC(=O)[C@H](CC(C)C)NC(=O)[C@H](CCCNC(=N)N)NC1=O [P+, GXC1RLYGFKWHXC1GG, reference compound] |
| 11.7 | CC(=O)NCC(=O)N[C@@H](CN=[N+]=[N-])C(=O)N[C@@H](CCCNC(=N)N)C(=O)N[C@@H](CC(C)C)C(=O)N[C@@H](Cc1ccc(O)cc1)C(=O)NCC(=O)N[C@@H](Cc1ccccc1)C(=O)N[C@@H](CCCCN)C(=O)N[C@@H](Cc1c[nH]c2ccccc12)C(=O)N[C@@H](Cc1c[nH]cn1)C(=O)N[C@@H](CN=[N+]=[N-])C(=O)NCC(=O)NCC(N)=O [P+L, reference compound] (Ac-G[Dap(N3)]RLYGFKWH[Dap(N3)]GG-NH2) |
| 137 ± 25.8 | Ac-LYGFKW-NH2 [Peptide P2, LYGFKW] |
| > 500 | Ac-RLYGFK-NH2 [Peptide P1, RLYGFK] |
| 22.5 ± 2.4 | Ac-RLYGFKW-NH2 [Peptide P3, RLYGFKW] |
| 16.7 ± 2.3 | Ac-RLYGFKWH-NH2 [Peptide P4, RLYGFKWH] |

| Molecule | IC50 [µM] |
| --- | --- |
| CC(=O)N[C@H]1CSCC(=O)CSC[C@@H](C(N)=O)NC(=O)[C@H](CCCCN)NC(=O)[C@H](Cc2ccccc2)NC(=O)CNC(=O)[C@H](Cc2ccc(O)cc2)NC(=O)[C@H](CC(C)C)NC(=O)[C@H](CCCNC(=N)N)NC1=O [Peptide P5C4] (Ac-CRLYGFKC-NH2; linker 1-8 via CH2COCH2) | 54.6 ± 11.2 |
| CC(=O)N[C@H]1CSCc2cccc(c2)CSC[C@@H](C(N)=O)NC(=O)[C@H](CCCCN)NC(=O)[C@H](Cc2ccccc2)NC(=O)CNC(=O)[C@H](Cc2ccc(O)cc2)NC(=O)[C@H](CC(C)C)NC(=O)[C@H](CCCNC(=N)N)NC1=O [Peptide P5C5] (Ac-CRLYGFKC-NH2; linker 1-8 via mXylylene) | 28.9 ± 1.9 |
| CC(=O)N[C@H]1CSCCc2cc(nc(N(C)CC(=O)O)n2)CCSC[C@@H](C(N)=O)NC(=O)[C@H](CCCCN)NC(=O)[C@H](Cc2ccccc2)NC(=O)CNC(=O)[C@H](Cc2ccc(O)cc2)NC(=O)[C@H](CC(C)C)NC(=O)[C@H](CCCNC(=N)N)NC1=O [Peptide P5C7] (Ac-CRLYGFKC-NH2; linker 1-8 via X1) | 40 ± 4.7 |
| CC(=O)N[C@H]1CSc2[nH]c3ccccc3c2C[C@@H](C(N)=O)NC(=O)[C@H](CCCCN)NC(=O)[C@H](Cc2ccccc2)NC(=O)CNC(=O)[C@H](Cc2ccc(O)cc2)NC(=O)[C@H](CC(C)C)NC(=O)[C@H](CCCNC(=N)N)NC1=O [Peptide P7C8, CC8RLYGFKWC8] (Ac-CRLYGFK[Trp(2-yl)]-NH2; thioether 1-8) | 15.6 ± 5.1 |

Tested on: not listed separately
Assay: Solubility observations during FP and ITC testing
Assay type: physicochemical
Conditions: observed during FP or ITC testing

| Solubility (observation in words) | Molecule |
| --- | --- |
| Precipitation | CCCCCCCCCCCC(=O)NCCOCCOCC(=O)NCCCC[C@@H]1NC(=O)[C@H](Cc2ccccc2)NC(=O)CNC(=O)[C@H](Cc2ccc(O)cc2)NC(=O)[C@H](CC(C)C)NC(=O)[C@H](CCCNC(=N)N)NC(=O)[C@@H](NC(C)=O)CCSc2[nH]c3ccccc3c2C[C@@H](C(N)=O)NC1=O [P8C9[FA]] (Ac-[hCys]RLYGFK([AEEA-Lauroyl])[Trp(2-yl)]-NH2; thioether 1-8) |
| poor solubility | CC(=O)N[C@H]1CSCSC[C@@H](C(N)=O)NC(=O)[C@H](CCCCN)NC(=O)[C@H](Cc2ccccc2)NC(=O)CNC(=O)[C@H](Cc2ccc(O)cc2)NC(=O)[C@H](CC(C)C)NC(=O)[C@H](CCCNC(=N)N)NC1=O [Peptide P5C6] (Ac-CRLYGFKC-NH2; linker 1-8 via CH2) |

Molecular target: T2, CK2α (Homo sapiens, UniProt P68400, K74A/K75A/K76A/R21S)
T2 construct: CK2α_KA (residues 2-329) contained four mutations; made in house
T2 sequence (P68400 2-329 R21S/K74A/K75A/K76A): T1 sequence (P68400 2-329) with R20S, K73A, K74A, K75A
Assay: Isothermal titration calorimetry (ITC) binding to CK2α
Conditions: 25 °C, CK2α_KA
From the text: Ligand efficiency (LE) is a commonly used statistic to evaluate and compare the effectiveness of drug candidates.17 Mathematically, it is related to the IC50 of the molecule, as well as the number of heavy atoms (non-hydrogen) it contains, as detailed in Equation 1. 18
Equation 1 Mathematical expression for the ligand efficiencies of compounds.18 pIC50 = -log10(IC50) LE = Number of non ‒ H atoms […]
greatest activity with the fewest heavy atoms.
as §1, §2
Three constructs of CK2α were used in this study. For FP assays, CK2α_WT was used (residues 2-329).
For ITC CK2α_KA construct was used whilst CK2α_FP10 was used for crystallisation purposes. CK2α_KA (residues 2-329) contained four mutations designed to aid crystallisation and solubility by reducing the overall charge of the protein; R21S, K74A, K75A and K76A. CK2α_FP 10 contained one mutation (R21S) and an N-terminal extension […] aimed at mimicking a substrate peptide for CK2α. These constructs were cloned, expressed, and purified as previously described.19 1.5.2 Fluorescence polarisation
IC50’s were determined using a PHERAstar FS plate reader (BMG labtech). The fluorescein probe was measured using 485 nm excitation and 530 nm emission. The fluorescein probe was covalently linked to the N-terminus of the linear CK2β-based peptide RLYGFKIHPMAYQLQ. IC50’s were measured using 500, 167, 16.7, 8.33 and 0 μM of the test peptide at a constant concentration of DMSO. P7C8, P8C9, P+L and P+ were tested at concentrations of 50.0, 16.7, 1.67, 0.833 and 0 μM due to their higher potencies. The experiments were performed in a Corning 384-well plate with final concentrations of 571 nM CK2α_WT (residues 2-329), 7.4 μM fluorescent peptide (fluorescein probe was covalently linked to the N-terminus of the linear CK2β-based peptide RLYGFKIHPMAYQLQ), 200 mM NaCl, 40mM TRIS, 20 mM MgCl2 and pH 7.5. The plates were read after a 45 min incubation period.
1.5.3 Isothermal titration calorimetry
All ITC experiments were performed at 25 °C using a MicroCal ITC-200 (GE Healthcare). […]

| Kd [µM] | Molecule |
| --- | --- |
| 1.3 | CCCCCCCCCCCC(=O)NCCOCCOCC(=O)N[C@H]1CCSc2[nH]c3ccccc3c2C[C@@H](C(N)=O)NC(=O)[C@H](CCCCN)NC(=O)[C@H](Cc2ccccc2)NC(=O)CNC(=O)[C@H](Cc2ccc(O)cc2)NC(=O)[C@H](CC(C)C)NC(=O)[C@H](CCCNC(=N)N)NC1=O [FA-P8C9] ({Lauroyl-AEEA}-[hCys]RLYGFK[Trp(2-yl)]-NH2; thioether 1-8) |
| 1.6 | CC(=O)NCCOCCOCC(=O)NCCCC[C@@H]1NC(=O)[C@H](Cc2ccccc2)NC(=O)CNC(=O)[C@H](Cc2ccc(O)cc2)NC(=O)[C@H](CC(C)C)NC(=O)[C@H](CCCNC(=N)N)NC(=O)[C@@H](NC(C)=O)CCSc2[nH]c3ccccc3c2C[C@@H](C(N)=O)NC1=O [P8C9[PEG]] (Ac-[hCys]RLYGFK([AEEA-Ac])[Trp(2-yl)]-NH2; thioether 1-8 (inferred)) |

— paper PMC9004346, “Development of small cyclic peptides targeting the CK2α/β interface” (Chemical Communications (Cambridge, England), 2022)
